Here are results for twelve compounds from PubChem BioAssay (NCI).

“And” between values parts separate entries of the source, which are not always exact repeats. Identical values can stand only once.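 Protocol summary: plate cells (96-well), add compound at 5 concentrations, incubate 48 h, interpolate endpoints linearly. GI50 = concentration required for 50% inhibition of growth. The concentration for full growth arrest is given as TGI.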

Common to all, as to test: NCI-60 cell line screen, 48 h
In assay [1] the test system is HCT-116 colon.
Assay [2] has as its system M14 melanoma.
For assay [3], the system named is NCI-H460 lung.
Assay [4] has as its system NCI/ADR-RES ovarian.
Assay [5] deals with SF-295 CNS.
Assay [6] has as its system SNB-19 CNS.
The subject of assay [7] is SR leukemia.
Assay [8] relates to TK-10 renal.
For assay [9], the system named is M19-MEL melanoma.

Take `O=C1/C(=C\c2ccccc2)C2OCC=C3CN4CCC56c7ccccc7N1C5C2C3CC46` (centres undefined): the GI50 is 6 µM in assay [1]; 1.94 µM in assay [2]; 6.4 µM in [3]; above 100 µM in assay [4]; 3.69 µM in assay [5]; above 100 µM in assay [6]. Further, the GI50 in assay [7] is 2.65 µM; in assay [8], 7.23 µM. The TGI in assay [1] was above 100 µM; in [2] it was 3.72 µM; in assay [3] it was above 100 µM; in assay [4], above 100 µM; in assay [5], 24.7 µM; in assay [6], above 100 µM. Further, the TGI was 8.76 µM in [7] and 73.3 µM in assay [8].
Regarding `Cn1cc(-c2nc(N[C@@H]3CCCC[C@@H]3N)c(F)c3c2C(=O)NC3)cn1`, the GI50 is 3.66 µM and 4.67 µM in [1]; 1.56 µM and 1.67 µM in [2]; 5.87 µM and 6.08 µM in assay [3]; above 100 µM in assay [4]; 3.95 µM and 3.5 µM in [5]; 27.3 µM and 29 µM in assay [6]. The GI50 was 2.26 µM and 2.92 µM in assay [7]; 4.5 µM and 6.16 µM in assay [8]. For the same compound, the TGI in assay [1] was 47.7 µM and > 83.3 µM; in assay [2] it was above 96.1 µM; in assay [3], 63.2 µM and > 100 µM; in assay [4] it was above 100 µM; in [5], above 77.2 µM; in [6], above 100 µM. In addition, the TGI is 31.9 µM and 36 µM in assay [7]; 25.3 µM and 40.6 µM in [8].
Take `CCOC(=O)CC(NC(=O)c1ccc(N=NN(C)C)cc1)C(=O)OCC` (centres undefined): the TGI in assay [1], in assay [2], in assay [9], in assay [3], in assay [5] and in assay [6] was above 100 µM each time. Besides, the TGI in assay [7] and in assay [8] was above 100 µM each time.
With `CC1=C(N2CC2)C(=O)c2ccccc2C1=O`, the TGI in [1] was determined as 12 µM; in [2], 5.03 µM; in assay [3] it was 2.39 µM; in assay [4], 3.14 µM; in [5], 2.48 µM; in assay [6] it was 6.27 µM. Further, the results for the TGI in [7] and in [8] were 0.279 µM and 6.48 µM, respectively.
For the compound `Cc1cc2nc3c4ccc(Br)cc4n(CCN(C)C)c3nc2cc1C`, the GI50 in [1] was 0.451 µM; in assay [2], 1.55 µM; in assay [3] it was 1.26 µM; in assay [4], 0.609 µM; in assay [5], 0.804 µM; in [6], 1.6 µM. Moreover, the results for the GI50 in assay [7] and in assay [8] were 0.423 µM and 1.97 µM, respectively. In addition, the TGI in assay [1] amounted to 2.14 µM; in assay [2] it was 3.39 µM; in assay [3], 3.95 µM; in assay [4], 4.69 µM; in assay [5], 2.91 µM; in assay [6], 7.52 µM. For the same compound, the TGI in assay [7] stood at 10 µM; in assay [8] it was 7.23 µM.
For the compound `O=C(/C=C/c1ccco1)c1ccc(Nc2nc(Nc3ccc(F)cc3)nc(Nc3ccc(F)cc3)n2)cc1`, the GI50 in [1] was 21 µM; in [2] it was 12.8 µM; in [3], 13.1 µM; in [4], 15.1 µM; in [5], 23.8 µM; in assay [6], 20.5 µM. In addition, the values for the GI50 in [7] and in assay [8] were 2.37 µM and 48.4 µM, respectively. The TGI in [1] was above 100 µM; in [2] it was 30.5 µM; in assay [3] it was 59 µM; in assay [4], 52.1 µM; in assay [5], 48.9 µM; in assay [6], 70.8 µM. Moreover, the TGI was 5.84 µM in [7] and above 100 µM in [8].
As for `COc1ccc(C(=O)c2cc3c(N)c(C(=O)Nc4cccc(OC)c4)sc3nc2C)cc1`, the GI50 is 0.368 µM in assay [1]; 0.341 µM in assay [2]; 0.741 µM in assay [3]; 0.515 µM in assay [4]; 0.601 µM in assay [5]; 0.513 µM in assay [6]. The values for the GI50 in assay [7] and in assay [8] were 0.203 µM and above 100 µM, respectively. Moreover, the TGI in [1], in assay [2], in assay [3], in [4], in assay [5] and in [6] was above 100 µM each time. This compound came in with a TGI in assay [8] above 100 µM.
With `Cc1ccc(S(=O)(=O)NC(CO)C(=O)O)cc1` (centres undefined), the TGI in assay [1], in [2], in [3], in assay [4], in assay [5] and in assay [6] was above 100 µM throughout. Besides, the TGI in [7] and in assay [8] was above 100 µM in each case.
Consider `S=c1c2ccccc2c(=S)n2n1CC=CC2`, for which the TGI in assay [1], in [2], in assay [9], in assay [5], in assay [6] and in assay [8] was above 100 µM each time.
As for `COc1cc2c(cc1OCCCOc1ccc(-c3nc4ccc(N5CCN(C)CC5)cc4[nH]3)cc1)N=C[C@@H]1CCCN1C2=O`, the GI50 in assay [1] was below 0.01 µM; in assay [2] it was below 0.01 µM; in [3], below 0.01 µM; in [4] it was below 0.017 µM; in assay [5], below 0.01 µM; in [6], below 0.01 µM. Moreover, the GI50 in assay [7] and in [8] was below 0.01 µM each time. The TGI was above 37 µM in assay [1]; below 0.01 µM in assay [2]; below 0.0505 µM in assay [3]; 0.161 µM in assay [4]; below 0.0359 µM in [5]; 17.1 µM in [6]. Besides, the results for the TGI in assay [7] and in assay [8] were below 0.01 µM and 0.492 µM, respectively.
On to `CC(N1CCOCC1)C(O)(c1ccccc1)c1ccccn1` (centres undefined), for which the TGI in [1], in [2], in assay [3], in assay [4], in assay [5] and in assay [6] was above 100 µM each time. For the same compound, the TGI in [7] and in [8] was above 100 µM each time.
Consider `CCc1cc(Cc2ccc(C)c(NC(=O)C(=O)C3C(=O)NC(=O)NC3=O)c2CC)cc(C)c1NC(=O)C(=O)C1C(=O)NC(=O)NC1=O`, for which the TGI in [1], in [2], in assay [9], in [3], in assay [6] and in [8] was above 100 µM in each case.
